# Laboratory results taken from US6262095A, “Use of tricyclic derivatives of 1,4-dihydro-1,4-dioxo-1H-naphthalene, novel compounds obtained and their application in theraphy” (Laboratoire Innothera, priority 1995, dated 2001).
# Columns and labels:
# [1] = test system: saphenous vein in rabbits; experiment: Contractile effect on the rabbit saphenous vein precontracted by a depolarizing physiological solution (K+ 40 mM); assay type: cell-based; conditions: Oryctolagus cuniculus, precontracted with 40 mM potassium
# Procedure: (§1) The contractile effects are measured in vitro under static conditions on vascular capacitance or resistance rings of saphenous, femoral, jugular, mesenteric, and caval veins . . . and on femoral, carotid, basilar, or mesenteric arteries, as well as the thoracic or abdominal aorta . . . in rats (Wistar, 200-250 g), rabbits (New Zealand, 2-2.5 kg), guinea pigs (Dunkin Hartley 250-300 g).
# (§2) The rings are placed in a chamber for isolated organs (25 mL for capacitance vessels and 2.5 mL for resistance vessels according to Mulvany), and maintained under isometric conditions using two rigid threads inserted inside the vessel, avoiding causing damage to the endothelium. The vessels are bathed in a modified Krebs solution (in mM: NaCl=118; KCl=4.6; CaCl2 =2.5; MgSO4 =1.2; KH2 PO4 =1.17; NaHCO3 =25; glucose=11), continuously aerated using a gaseous mixture of 95% O2 and 5% Co2, at a pH=7.4, and regulated by thermostat at 37° C. The rings are adjusted to their optimal point as far as the tension-length relationship is concerned. The tensions developed generate an electrical signal through the intermediary of a force sensor (Wheatstone bridge). […] The pharmacological studies are carried out after a few standardized preliminary contractile stimulations using a depolarizing solution (hyperpotassic type obtained by replacing NaCl with KCl in equimolar quantities), along with rinsings and periods of equilibration in a pure physiological solution. The presence of endothelium is verified by the relaxation induced by increasing the concentration of acetylcholine after the stabilization of a vascular precontraction.
# The forces of contraction developed by the vascular rings in response to the different compounds are studied on quiescent or electrically stimulated vessels (5-8 Hz), by a "physiological" depolarizing hyperpotassic solution (KCl: 20, 40 mM), by noradrenaline (increasing concentrations), [and by] serotonin (increasing concentrations).
# The contractions are expressed in mg force or as a percentage of the maximum contraction at the time of the depolarization with a "physiological" hyperpotassic solution.
# The contractile effect of different compounds on the saphenous vein in rabbits, precontracted by a depolarizing "physiological" solution with a potassium concentration of 40 mM, is given as an illustration; the maximum effect produced by each compound is expressed as a percentage of the maximum contraction induced by depolarizing hyperpotassic solutions and as value of ED50): […]
# [2] = test system: hyperpermeability induced by zymosan in rats; experiment: Inflammatory hyperpermeability induced by zymosan in rats; assay type: in vivo, rat (Wistar); conditions: rat, oral, 5 mg/kg
# Procedure: The vascular permeability is studied in vivo by measuring the extravasation of albumin, the quantity of which is determined using an albumin-binding dye (Evans blue).
# The hyperpermeability is induced by the intradermal injection of a solution of histamine, bradykinin, or zymosan.
# The abdominal walls of the rats (Wistar, 200-230 g) are shorn 1 h before the start of the experiment. The product to be tested is injected by the intraperitoneal route or orally 1-4 h before the sacrifice. The rats are anesthetized with a halothane mixture. They then receive an intradermal injection in their abdomen of 0.10 or 0.15 mL (or for histamine 6.7 or […]) of inflammatory agent and an intravenous injection of 1 mL of 0.5% Evans blue solution in the vein of the penis. These injections are carried out 30 min before the sacrificing.
# 30 min after these two injections, the rats are sacrificed by cervical dislocation.
# At the site of the injection of the inflammatory agent, the skin is cut and placed into glass tubes with a ground[-glass] neck containing 3 mL of fuming hydrochloric acid. […] After allowing the preparation to stand for 30 min, 7 mL of dichloromethane are added. The tubes are periodically agitated for 1 h. The aqueous phase is eliminated by aspiration, and the organic "dichloromethane" phase is filtered. The optical densities are quantified by absorption spectrophotometry at a wavelength of 620 nm, against a blank [control] containing only dichloromethane. The averages of the optical densities of the different lots of treated or control animals are calculated, then a percentage of variation of the values corresponding to the treated [experimental] animals compared to those of the control animals is calculated.
# mice = experiment: Single oral administration toxicity in mice; assay type: in vivo, mouse; conditions: single oral administration, 1 g/kg
# Excerpt: Moreover, the compounds of the invention and their possible salts have a very low toxicity.
# [3] = test system: saphenous vein in rabbits; experiment: Potentiation of the contractile response of the rabbit saphenous vein to noradrenaline; assay type: cell-based
# Procedure: as §1
# as §2, with “concerned.” for “concerned. The tensions developed generate an electrical signal through the intermediary of a force sensor (Wheatstone bridge).”, “The presence of endothelium is verified by the relaxation induced by increasing the concentration of acetylcholine after the stabilization of a vascular precontraction.” left out
# jugular vein of rabbits = experiment: Contraction of rabbit jugular vein under depolarizing hyperpotassic conditions; assay type: cell-based; conditions: Oryctolagus cuniculus, pH 7.4, read-out: ED50 (contraction)
# Procedure: as §1
# as §2, with “concerned.” for “concerned. The tensions developed generate an electrical signal through the intermediary of a force sensor (Wheatstone bridge).”, “The presence of endothelium is verified by the relaxation induced by increasing the concentration of acetylcholine after the stabilization of a vascular precontraction.” left out
# carotid arteries of rats = experiment: Contraction of rat carotid arteries under depolarizing hyperpotassic conditions; assay type: cell-based; conditions: pH 7.4, read-out: ED50 (contraction)
# Procedure: as §1
# as §2, with “concerned.” for “concerned. The tensions developed generate an electrical signal through the intermediary of a force sensor (Wheatstone bridge).”, “The presence of endothelium is verified by the relaxation induced by increasing the concentration of acetylcholine after the stabilization of a vascular precontraction.” left out
# [4] = test system: carotid arteries of rabbits; experiment: Contraction of rabbit carotid arteries under depolarizing hyperpotassic conditions; assay type: cell-based; conditions: Oryctolagus cuniculus, pH 7.4, read-out: ED50 (contraction)
# Procedure: as §1
# as §2, with “concerned.” for “concerned. The tensions developed generate an electrical signal through the intermediary of a force sensor (Wheatstone bridge).”, “The presence of endothelium is verified by the relaxation induced by increasing the concentration of acetylcholine after the stabilization of a vascular precontraction.” left out
# [5] = test system: pleurisy by carrageenin in rats; experiment: Pleurisy induced by carrageenin in rats; assay type: in vivo; conditions: rat, oral 3×5 mg
# Procedure: The anti-inflammatory activity of the compounds is also studied by measuring the inhibition of the edema and the leukocyte migration after the induction of pleurisy in rats by the injection of carrageenin into the pleural cavity (Almeida et al., J. Pharmacol. Exp. Therap., 1980, Vol. 214: p. 74). The rats are treated orally using the compounds 2 h before the injection of carrageenin, and 2 and 4 h after this injection. After a predetermined time (6 h) following the induction of pleurisy, the rats are sacrificed; the pleural liquid is recovered by aspiration, and its volume is measured. The leukocytic cells are counted using the "cell counter" technique. The results are expressed as the number of leukocytes in the exudate expressed with respect to 100 g of animal weight and compared with those of the control lot.
# [6] = test system: arterial pressure of the conscious rat; experiment: Arterial pressure of the conscious rat; assay type: in vivo; conditions: oral 0.1-5-50 mg/kg
# Procedure: In the conscious animal, the arterial pressures are measured according to the classical method derived from Riva Rocci, by the analysis of the acoustical wave transmitted at the arterial level and transformed by a ceramic piezo transducer placed on the tail of the rat, downstream from a sleeve that is automatically inflated by a pressure generator. At the microcirculatory level, the variations in the sections of the veinules and arterioles are studied in vivo in the model of the dorsal cutaneous chamber of conscious hamsters, after a video microscopic recording (microscope Leitz Ergolux equipped with a halogen source for the illumination and its black-and-white CD video camera HPR 610) and computer analysis (software Visicap, Pack ICAP) of the images.
compound,measurement,setting,value
"O=C1c2ccccc2C(=O)c2sc(-c3ccco3)nc21 [Example n, 4,9-Dihydro-4,9-dioxo-2-(2-furyl)-naphtho[2,3-d]thiazole]",Emax,[1]; % of maximum contraction induced by hyperpotassic solutions,24 ± 3%
same,EC50,[1]; read-out: ED50 (the source's name),110 nM
same,"Zymosan-induced hyperpermeability, effect after 2 h",[2]; 2 h,0 % of the control
same,"Zymosan-induced hyperpermeability, effect after 4 h",[2]; 4 h,-21 % of the control
same,observed signs,mice,red urine
same,toxic effect and mortality,mice,no observable toxic effect and no mortality
same,change of noradrenaline ED50,[3],reduced by a factor of ten
same,Emax,"[3]; Oryctolagus cuniculus, read-out: increase of noradrenaline Emax",30%
same,EC50,jugular vein of rabbits,16 nM
same,EC50,carotid arteries of rats,300 nM
same,EC50,[4],120 nM
same,volume of pulmonary exudate,[5],significantly decreases the volume of pulmonary exudate
same,arterial pressure,[6],does not affect the arterial pressure
